Values joined by “and” are separate entries in the source; they are usually repeats but may differ in a detail not shown here. Equal entries are not always repeated. Structures can show the parent of a compound that is named as a salt. Where two headings read alike, the source gives them in different places.
Legend:
DNMT3B = DNMT3B (Homo sapiens (Human), UniProt Q9UBC3); test: DNMT3B breaklight assay; assay type: biochemical
[1] = system: erythroid progenitor cells (EPCs); test: Fetal hemoglobin (HbF) ELISA in day 7 erythroid progenitor cells; assay type: cell-based, human; conditions: Homo sapiens, Erythroid progenitor cell, HbF ELISA, day 7 EPCs, 5 days; read-out: EPC ELISA (pEC50 category) (converted);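 also: for fetal hemoglobin induction normalized to vehicle-treated cells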
In short: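 Day 7 EPCs from human bone marrow CD34+ cells were plated at 1,000 cells/well in media with 3 U/mL rhEPO. They were exposed to a 22-point dilution ([…]) for 5 days at 37 °C. Lysate HbF was measured by sandwich ELISA (OD450) and normalized to DMSO control wells.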

DNMT1 = DNMT1 (Homo sapiens, UniProt P26358); test: DNMT1 biochemical activity, breaklight assay and/or SPA assay
[2] = read-out: DNMT3B Breaklight IC50
[3] = binned activity in either the breaklight or the SPA assay, read-out: DNMT1 BioChemical (pIC50 category) (converted)
[4] = breaklight assay and/or SPA assay, repeated experimental runs, read-out: average pIC50 against DNMT1 (converted)
[5] = binned activity in either the breaklight or the SPA assay
[6] = breaklight assay and/or SPA assay, repeated experimental runs

Sequence of DNMT1 (P26358 whole entry, looked up): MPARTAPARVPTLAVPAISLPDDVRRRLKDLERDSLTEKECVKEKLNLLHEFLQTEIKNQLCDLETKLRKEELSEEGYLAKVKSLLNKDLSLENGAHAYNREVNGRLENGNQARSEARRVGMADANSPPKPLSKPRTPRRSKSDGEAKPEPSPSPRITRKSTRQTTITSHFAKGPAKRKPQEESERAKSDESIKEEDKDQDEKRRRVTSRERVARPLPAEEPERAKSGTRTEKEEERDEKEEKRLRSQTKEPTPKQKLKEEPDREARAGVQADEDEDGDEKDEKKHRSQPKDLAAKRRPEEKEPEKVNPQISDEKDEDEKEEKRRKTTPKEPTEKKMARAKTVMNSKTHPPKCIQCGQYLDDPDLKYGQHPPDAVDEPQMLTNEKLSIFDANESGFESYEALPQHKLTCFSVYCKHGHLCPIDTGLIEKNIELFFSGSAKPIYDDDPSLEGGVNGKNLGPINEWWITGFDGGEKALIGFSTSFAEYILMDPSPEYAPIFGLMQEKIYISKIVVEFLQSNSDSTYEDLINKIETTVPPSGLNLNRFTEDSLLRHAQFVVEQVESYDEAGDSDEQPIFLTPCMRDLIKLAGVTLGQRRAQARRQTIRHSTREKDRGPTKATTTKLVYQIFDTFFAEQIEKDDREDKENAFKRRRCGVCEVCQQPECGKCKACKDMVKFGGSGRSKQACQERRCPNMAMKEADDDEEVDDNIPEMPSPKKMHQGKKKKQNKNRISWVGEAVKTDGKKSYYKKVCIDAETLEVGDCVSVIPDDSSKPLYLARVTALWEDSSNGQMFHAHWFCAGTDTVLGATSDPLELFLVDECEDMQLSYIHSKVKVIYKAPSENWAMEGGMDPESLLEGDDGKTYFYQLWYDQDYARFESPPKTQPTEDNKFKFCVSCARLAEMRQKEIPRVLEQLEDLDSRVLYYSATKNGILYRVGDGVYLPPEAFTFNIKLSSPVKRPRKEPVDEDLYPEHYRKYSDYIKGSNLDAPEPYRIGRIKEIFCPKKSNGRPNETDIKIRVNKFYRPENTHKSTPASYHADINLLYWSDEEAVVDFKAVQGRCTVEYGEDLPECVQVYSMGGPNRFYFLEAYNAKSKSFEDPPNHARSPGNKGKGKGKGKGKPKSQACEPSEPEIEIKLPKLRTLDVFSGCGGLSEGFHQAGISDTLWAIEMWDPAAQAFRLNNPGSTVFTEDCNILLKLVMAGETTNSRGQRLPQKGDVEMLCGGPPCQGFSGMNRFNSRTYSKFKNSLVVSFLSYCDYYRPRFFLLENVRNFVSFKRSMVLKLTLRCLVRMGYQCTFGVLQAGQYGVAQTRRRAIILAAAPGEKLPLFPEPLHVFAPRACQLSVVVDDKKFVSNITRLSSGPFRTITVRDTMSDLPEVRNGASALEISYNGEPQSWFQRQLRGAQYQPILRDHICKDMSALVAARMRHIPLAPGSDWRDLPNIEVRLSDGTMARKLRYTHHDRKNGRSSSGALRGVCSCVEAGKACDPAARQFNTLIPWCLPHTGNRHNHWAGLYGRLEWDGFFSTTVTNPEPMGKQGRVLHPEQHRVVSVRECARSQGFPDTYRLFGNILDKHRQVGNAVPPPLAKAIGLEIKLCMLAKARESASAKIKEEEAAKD

Row | IC50 (DNMT3B; [2]) [µM] | EC50 [1] [µM] | DNMT1 BioChemical (pIC50 category) (DNMT1; [5]) | SMILES | further results
1 | > 500 | 0.316 to 1 | – | CCc1c(C#N)c(SC(C(N)=O)c2ccccc2)nc(N(C)C)c1C#N (centres unmarked) [Example 3, 2-{[3,5-dicyano-6-(dimethylamino)-4-ethylpyridin-2-yl]sulfanyl}-2-phenylacetamide] | IC50 (DNMT3B; repeated experimental runs, read-out: average IC50, DNMT3B breaklight assay): > 500 µM
2 | > 250 | 1 to 31.6 | – | CCc1c(C#N)c(SCc2ccc(=O)[nH]c2)nc(N(C)C)c1C#N [Example 74, 2-(Dimethylamino)-4-ethyl-6-(((6-oxo-1,6-dihydropyridin-3-yl)methyl)thio)pyridine-3,5-dicarbonitrile] | IC50 (DNMT1; [3]): 1 to 31.6 µM; IC50 (DNMT1; [4]): ≥ 1 µM
3 | > 250 | 0.316 to 1 | – | CCc1c(C#N)c(SCc2ccc(S(N)(=O)=O)cc2)nc(N2CCCN(C)CC2)c1C#N [Example 76, 4-(((3,5-Dicyano-4-ethyl-6-(4-methyl-1,4-diazepan-1-yl)pyridin-2-yl)thio)methyl)benzenesulfonamide] | –
4 | > 250 | < 0.316 | D (Category D: ≥6.5) | CCc1c(C#N)c(SCc2ccc(CNC(C)=O)cc2)nc(N2CCCN(C)CC2)c1C#N [Example 77, N-(4-(((3,5-Dicyano-4-ethyl-6-(4-methyl-1,4-diazepan-1-yl)pyridin-2-yl)thio)methyl)benzyl)acetamide] | average pIC50 against DNMT1 (DNMT1; [6]): > 6.5
5 | > 250 | > 31.6 | – | CCc1c(C#N)c(SCc2ccccc2)nc(N2CCC(N)CC2)c1C#N [Example 81, 2-(4-Aminopiperidin-1-yl)-6-(benzylthio)-4-ethylpyridine-3,5-dicarbonitrile] | IC50 (DNMT1; [3]): 0.316 to 1 µM; IC50 (DNMT1; [4]): ≥ 1 µM
6 | > 250 | < 0.316 | D (Category D: ≥6.5) | CCc1c(C#N)c(SCc2ccc(CC(N)=O)cc2)nc(N2CCCN(C)CC2)c1C#N [Example 83, 2-(4-(((3,5-dicyano-4-ethyl-6-(4-methyl-1,4-diazepan-1-yl)pyridin-2-yl)thio)methyl)phenyl)acetamide] | average pIC50 against DNMT1 (DNMT1; [6]): > 6.5
7 | > 250 | < 0.316 | D (Category D: ≥6.5) | CCc1c(C#N)c(SCc2ccc(CC(=O)NC)cc2)nc(N2CCCN(C)CC2)c1C#N [Example 84, 2-(4-(((3,5-Dicyano-4-ethyl-6-(4-methyl-1,4-diazepan-1-yl)pyridin-2-yl)thio)methyl)phenyl)-N-methylacetamide] | –
8 | > 250 | < 0.316 | D (Category D: ≥6.5) | CCc1c(C#N)c(SCc2ccc(CNC(=O)CO)cc2)nc(N2CCCN(C)CC2)c1C#N [Example 86, N-(4-(((3,5-Dicyano-4-ethyl-6-(4-methyl-1,4-diazepan-1-yl)pyridin-2-yl)thio)methyl)benzyl)-2-hydroxyacetamide] | average pIC50 against DNMT1 (DNMT1; [6]): > 6.5; IC50 (DNMT1; [4]): 0.2 µM
9 | 254 | < 0.316 | D (Category D: ≥6.5) | CCc1c(C#N)c(SCc2ccc(S(=O)(=O)NC)cc2)nc(N2CCCN(C)CC2)c1C#N [Example 104, 4-(((3,5-Dicyano-4-ethyl-6-(4-methyl-1,4-diazepan-1-yl)pyridin-2-yl)thio)methyl)-N-methylbenzenesulfonamide] | –
10 | – | 1 to 31.6 | – | N#Cc1c(SC(C(N)=O)c2ccccc2)nc(N2CC(NC(=O)C3(N)COC3)C2)c(C#N)c1C1CC1 (centres unmarked) [Example 680, 3-amino-N-(1-(6-((2-amino-2-oxo-1-phenylethyl)thio)-3,5-dicyano-4-cyclopropylpyridin-2-yl)azetidin-3-yl)oxetane-3-carboxamide] | IC50 (DNMT1; [3]): < 0.316 µM
11 | – | 1 to 31.6 | D (Category D: ≥6.5) | CCc1c(C#N)c(SC(C(N)=O)c2ccccc2F)nc(N2CC[C@H](O)C2)c1C#N (stereo partly drawn) [Example 682, 2-((3,5-dicyano-4-ethyl-6-((S)-3-hydroxypyrrolidin-1-yl)pyridin-2-yl)thio)-2-(2-fluorophenyl)acetamide] | –
12 | – | < 0.316 | D (Category D: ≥6.5) | CCc1c(C#N)c(SC(C(N)=O)c2ccccc2)nc(N2CCC[C@H](NC3CC3)C2)c1C#N (stereo partly drawn) [Example 684, 2-((3,5-dicyano-6-((S)-3-(cyclopropylamino)piperidin-1-yl)-4-ethylpyridin-2-yl)thio)-2-phenylacetamide] | –
13 | – | 0.316 to 1 | D (Category D: ≥6.5) | CCc1c(C#N)c(SC(C(N)=O)c2ccccc2)nc(N(C)CC(=O)NCC(C)(C)CO)c1C#N (centres unmarked) [Example 685, 2-((6-((2-amino-2-oxo-1-phenylethyl)thio)-3,5-dicyano-4-ethylpyridin-2-yl)(methyl)amino)-N-(3-hydroxy-2,2-dimethylpropyl)acetamide] | IC50 (DNMT1; [4]): 0.316 to 1 µM and 0.316 µM
14 | – | 1 to 31.6 | D (Category D: ≥6.5) | CCc1c(C#N)c(SC(C(N)=O)c2ccccc2)nc(N(C)CC(=O)NCCn2cnnc2)c1C#N (centres unmarked) [Example 686, N-(2-(4H-1,2,4-triazol-4-yl)ethyl)-2-((6-((2-amino-2-oxo-1-phenylethyl)thio)-3,5-dicyano-4-ethylpyridin-2-yl)(methyl)amino)acetamide] | –
15 | – | 1 to 31.6 | D (Category D: ≥6.5) | CCc1c(C#N)c(SC(C(N)=O)c2ccccc2)nc(N2CC(F)(CN)C2)c1C#N (centres unmarked) [Example 688, 2-((6-(3-(aminomethyl)-3-fluoroazetidin-1-yl)-3,5-dicyano-4-ethylpyridin-2-yl)thio)-2-phenylacetamide] | –
16 | – | 1 to 31.6 | D (Category D: ≥6.5) | CCc1c(C#N)c(S[C@@H](C(N)=O)c2ccccc2)nc(N2CC[C@](O)(CO)C2)c1C#N [Example 689, (R)-2-((3,5-dicyano-4-ethyl-6-((R)-3-hydroxy-3-(hydroxymethyl)pyrrolidin-1-yl)pyridin-2-yl)thio)-2-phenylacetamide] | –
17 | – | 1 to 31.6 | D (Category D: ≥6.5) | CCc1c(C#N)c(SC(C(N)=O)c2ccccc2)nc(N2CCC[C@H](NCC(F)F)C2)c1C#N (stereo partly drawn) [Example 690, 2-((3,5-dicyano-6-((S)-3-((2,2-difluoroethyl)amino)piperidin-1-yl)-4-ethylpyridin-2-yl)thio)-2-phenylacetamide] | –
18 | – | 1 to 31.6 | D (Category D: ≥6.5) | CCc1c(C#N)c(SC(C(N)=O)c2ccccc2)nc(N2CCC[C@@H](N)C2)c1C#N (stereo partly drawn) [Example 691, 2-((6-((R)-3-aminopiperidin-1-yl)-3,5-dicyano-4-ethylpyridin-2-yl)thio)-2-phenylacetamide] | –
19 | – | < 0.316 | D (Category D: ≥6.5) | CCc1c(C#N)c(SCc2ccc(N(C)S(C)(=O)=O)cc2)nc(N2CCC(NCCO)CC2)c1C#N [Example 692, N-(4-(((3,5-dicyano-4-ethyl-6-(4-((2-hydroxyethyl)amino)piperidin-1-yl)pyridin-2-yl)thio)methyl)phenyl)-N-methylmethanesulfonamide] | –
20 | – | 1 to 31.6 | D (Category D: ≥6.5) | CCc1c(C#N)c(S[C@@H](C(N)=O)c2ccccc2)nc(N(C)CCCO)c1C#N [Example 695, (R)-2-((3,5-dicyano-4-ethyl-6-((3-hydroxypropyl)(methyl)amino)pyridin-2-yl)thio)-2-phenylacetamide] | –
21 | – | < 0.316 | D (Category D: ≥6.5) | CCc1c(C#N)c(SC(C(N)=O)c2ccccc2)nc(N2CCC(N3CC(OC)C3)CC2)c1C#N (centres unmarked) [Example 697, 2-((3,5-dicyano-4-ethyl-6-(4-(3-methoxyazetidin-1-yl)piperidin-1-yl)pyridin-2-yl)thio)-2-phenylacetamide] | –
22 | – | < 0.316 | D (Category D: ≥6.5) | CCc1c(C#N)c(SC(C(N)=O)c2ccc(F)cc2)nc(N2CCC(N3CC(OC)C3)CC2)c1C#N (centres unmarked) [Example 698, 2-((3,5-dicyano-4-ethyl-6-(4-(3-methoxyazetidin-1-yl)piperidin-1-yl)pyridin-2-yl)thio)-2-(4-fluorophenyl)acetamide] | –
23 | – | 1 to 31.6 | – | CCc1c(C#N)c(SC(C(N)=O)c2ccccc2)nc(N(C)C2CCN(C)C2)c1C#N (centres unmarked) [Example 699, 2-((3,5-dicyano-4-ethyl-6-(methyl(1-methylpyrrolidin-3-yl)amino)pyridin-2-yl)thio)-2-phenylacetamide] | IC50 (DNMT1; [3]): 0.316 to 1 µM

Row | SMILES | IC50 (DNMT3B; [2]) [µM] | EC50 [1] [µM] | DNMT1 BioChemical (pIC50 category) (DNMT1; [5]) | further results
24 | CCc1c(C#N)c(SC(C(N)=O)c2ccccc2)nc(N2CCC(NC(=O)[C@H](C)N)CC2)c1C#N (stereo partly drawn) [Example 138, (2S)-2-Amino-N-(1-(6-((2-amino-2-oxo-1-phenylethyl)thio)-3,5-dicyano-4-ethylpyridin-2-yl)piperidin-4-yl)propanamide, Trifluoroacetic Acid Salt] | 167 | < 0.316 | D (Category D: ≥6.5) | average pIC50 against DNMT1 (DNMT1; breaklight assay and/or SPA assay, repeated experimental runs, Trifluoroacetic Acid Salt): > 6.5; IC50 (DNMT1; [4]): 0.1 µM
25 | COc1c(C#N)c(SCc2ccc(N(C)S(C)(=O)=O)cc2)nc(N2CCC(N)CC2)c1C#N [Example 683, N-(4-(((6-(4-aminopiperidin-1-yl)-3,5-dicyano-4-methoxypyridin-2-yl)thio)methyl)phenyl)-N-methylmethanesulfonamide hydrochloride] | – | < 0.316 | D (Category D: ≥6.5) | IC50 (DNMT1; [4]): 0.316 to 1 µM and 0.316 µM
26 | COc1c(C#N)c(SC(C(N)=O)c2ccccc2)nc(N2CCC(N)CC2)c1C#N (centres unmarked) [Example 693, 2-((6-(4-aminopiperidin-1-yl)-3,5-dicyano-4-methoxypyridin-2-yl)thio)-2-phenylacetamide 2,2,2-trifluoroacetate] | – | < 0.316 | D (Category D: ≥6.5) | –
